Source: article PMC9841533, “Microtubule-Stabilizing 1,2,4-Triazolo[1,5-a]pyrimidines as Candidate Therapeutics for Neurodegenerative Disease: Matched Molecular Pair Analyses and Computational Studies Reveal New Structure–Activity Insights” (Journal of Medicinal Chemistry, 2022)
Read-outs that look alike come from different tables or passages of the source.

Tests used:
[1] = system: total α-tubulin (α-Tub) levels in QBI293 cells; test: QBI293 cell assay: total α-tubulin ELISA; type: cell-based
How it was run: (§1)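 AcTub and α-Tub were quantified by ELISA in whole-cell extracts normalized by BCA protein and expressed relative to vehicle. AcTub changes were also scaled to a 100 nM reference stabilizer control.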

[2] = Brain-to-plasma ratio in mice; type: in vivo; conditions: mouse, ip, 1 h post-administration, i.p. 1.5 mg/kg, read-out: brain-to-plasma ratio (B/P)
[3] = Resazurin cell viability assay, QBI293; type: cell-based; conditions: human, QBI293 cells, three biological replicates, read-out: QBI293 CC50 ± SD
Procedure: Cell Culture. QBI293 and HeLa cells were cultured in DMEM supplemented with 10% heat-
inactivated FBS and 1% penicillin-streptomycin. Cells were grown in T175 cell culture flasks maintained
at 37 ℃ in 5% CO2 and sub-c ultured when at 60-8 0% cell confluence.
Resazurin Cell Viability Assay. Cytotoxicity in QBI293 and HeLa cells was measured using the
resazurin cell viability assay.1 Test compounds were serially diluted in DMSO and added to 96-well
polystyrene assay plates to give final assay concentrations ranging from 100 nM to 4000 nM (1 µL; 1%
total DMSO). Fresh medium was added to the assay plate (49 µL/well). QBI293 or HeLa cells were
cells/well. Assay plates were incubated at 37 °C and 5% CO2 for 48 h, followed by addition of 20 µL 0.5
mM resazurin (Alfa Aesar, Cat. B21187) in PBS to each well. Assay plates were incubated in the dark for
(1 picture or pasted object on this page, not shown here)
4 h at 37 °C. Fluorescence was measured at 531 nm and 595 nm excitation and emission wavelengths,
respectively, using a 2104 EnVision® multilabel plate reader. The viability of each well was normalized to
positive and negative controls in each assay plate. Dose-response curves were generated and CC50 values
calculated with GraphPad Prism, version 9.3 (San Diego, CA) using a sigmoidal four parameter logistic
curve. The means ± standard deviations from three biological replicates are shown.
(1) O'Brien, J.; Wilson, I.; Orton, T.; Pognan, F. Investigation of the Alamar Blue (resazurin) fluorescent
dye for the assessment of mammalian cell cytotoxicity. Eur. J. Biochem. 2000, 267 (17), 5421-5426.

[4] = Plasma pharmacokinetics in CD-1 mice; type: in vivo, mouse; conditions: i.v. 5 mg/kg
Procedure: Studies to determine the pharmacokinetic properties of compounds 53 and 60 were conducted at Touchstone Biosciences (Plymouth Meeting, PA). For the determination of plasma pharmacokinetics, three male CD-1 mice (2–3 months of age) were injected i.v. (tail vein) with test compound at a dose of 5 mg/kg in a solution of 10% DMSO, 40% polyethylene glycol, and 50% water, and another three male CD-1 mice received oral gavage dosing of 60 formulated as above at a dose of 20 mg/kg. Blood samples were collected from the saphenous or submandibular veins at multiple time points after dosing and collected in Greiner MiniCollect K2EDTA tubes. Compound levels in plasma were determined by LC-MS/MS, using protocols similar to those previously described.[16],[22]

[5] = system: acetylated α-tubulin (AcTub) levels in QBI293 cells; test: QBI293 cell assay of MT stabilization: acetylated α-tubulin ELISA; type: cell-based
How it was run: as §1

C[C@@H](Nc1c(-c2c(F)cc(C#CCCO)cc2F)c(Cl)nc2ncnn12)C(C)(C)C [Compound 53, (R)-4-(4-(5-Chloro-7-((3,3-dimethylbutan-2-yl)amino)-[1,2,4]triazolo[1,5-a]pyrimidin-6-yl)-3,5-difluorophenyl)but-3-yn-1-ol]
fold induction at 1 µM ([1]; 4 h, 1 uM compound, read-out: AlfaTub (1uM)): 0.98 | fold induction at 10 µM ([1]; 4 h, 10 uM compound, read-out: AlfaTub (10 uM)): 0.98 | fold induction at 1 µM ([1]; 4 h incubation, 1 μM, read-out: α-Tub 1 μM, fold-change compared to vehicle (DMSO)-treated cells): 0.98 ± 0.04 | fold induction at 10 µM ([1]; 4 h incubation, 10 μM, read-out: α-Tub 10 μM, fold-change compared to vehicle (DMSO)-treated cells): 0.98 ± 0.21 | Kp at 1 h [2]: ~0.5 | CC50 at 48 h [3]: 0.0301 ± 0.0048 µM | half-life (T1/2) [4]: relatively prolonged half-life | AcTub (1 uM - normalized) ([5]; 1 uM compound, normalized): 0.57 | AcTub (10 uM - normalized) ([5]; 10 uM compound, normalized): 0.81 | fold induction at 1 µM ([5]; 4 h, 1 uM compound, read-out: AcTub (1uM)): 3.67 | fold induction at 10 µM ([5]; 4 h, 10 uM compound, read-out: AcTub (10 uM)): 5.25 | AcTub 1 μM, fold-change compared to positive control compound 5 (100 nM) (in parentheses) ([5]; 4 h incubation, 1 μM): 0.57 fold-change | fold induction at 1 µM ([5]; 4 h incubation, 1 μM, read-out: AcTub 1 μM, fold-change compared to vehicle (DMSO)-treated cells): 3.67 ± 0.34 | AcTub 10 μM, fold-change compared to positive control compound 5 (100 nM) (in parentheses) ([5]; 4 h incubation, 10 μM): 0.81 fold-change | fold induction at 10 µM ([5]; 4 h incubation, 10 μM, read-out: AcTub 10 μM, fold-change compared to vehicle (DMSO)-treated cells): 5.25 ± 0.89
